Converted amounts (≈) assume the structure as drawn. Values belong to the molecule of their own block, whether it stands above or below them.
How the values were obtained:
[1] = target: Trypsin (Homo sapiens, UniProt P07477+P07478+P35030); experiment: Inhibition of trypsin (unknown origin); format: protein assay
[2] = test system: K562; experiment: Antiproliferative activity against human K562 cells; format: functional, cell-based
[3] = Antiproliferative activity against human 3AO cells; format: functional, cell-based
[4] = test system: MCF7; experiment: Antiproliferative activity against human MCF7 cells; format: functional, cell-based
[5] = target: Vascular endothelial growth factor receptor 2 (Homo sapiens, UniProt P35968); experiment: Inhibition of VEGFR2 (unknown origin) at 1 uM relative to control
[6] = test system: BEAS-2B; experiment: Antiproliferative activity against human BEAS-2B cells; format: functional, cell-based
[7] = test system: PC-3; experiment: Antiproliferative activity against human PC-3 cells; format: functional, cell-based
[8] = test system: HeLa; experiment: Antiproliferative activity against human HeLa cells; format: functional, cell-based
[9] = target: Glutamate receptor 2 (Homo sapiens, UniProt P42262); experiment: Binding affinity to GluA2 receptor (unknown origin)
[10] = target: Glutamate receptor ionotropic, kainate 2 (Homo sapiens, UniProt Q13002); experiment: Binding affinity to GluK2 receptor (unknown origin)
[11] = target: Glutamate receptor ionotropic, kainate 1 (Homo sapiens, UniProt P39086); experiment: Binding affinity to GluK1 receptor (unknown origin)
[12] = target: T1, Glutamate receptor ionotropic, kainate 5 (Homo sapiens, UniProt Q16478); experiment: Binding affinity to GluK5 receptor (unknown origin)
T1 sequence (Q16478 whole entry): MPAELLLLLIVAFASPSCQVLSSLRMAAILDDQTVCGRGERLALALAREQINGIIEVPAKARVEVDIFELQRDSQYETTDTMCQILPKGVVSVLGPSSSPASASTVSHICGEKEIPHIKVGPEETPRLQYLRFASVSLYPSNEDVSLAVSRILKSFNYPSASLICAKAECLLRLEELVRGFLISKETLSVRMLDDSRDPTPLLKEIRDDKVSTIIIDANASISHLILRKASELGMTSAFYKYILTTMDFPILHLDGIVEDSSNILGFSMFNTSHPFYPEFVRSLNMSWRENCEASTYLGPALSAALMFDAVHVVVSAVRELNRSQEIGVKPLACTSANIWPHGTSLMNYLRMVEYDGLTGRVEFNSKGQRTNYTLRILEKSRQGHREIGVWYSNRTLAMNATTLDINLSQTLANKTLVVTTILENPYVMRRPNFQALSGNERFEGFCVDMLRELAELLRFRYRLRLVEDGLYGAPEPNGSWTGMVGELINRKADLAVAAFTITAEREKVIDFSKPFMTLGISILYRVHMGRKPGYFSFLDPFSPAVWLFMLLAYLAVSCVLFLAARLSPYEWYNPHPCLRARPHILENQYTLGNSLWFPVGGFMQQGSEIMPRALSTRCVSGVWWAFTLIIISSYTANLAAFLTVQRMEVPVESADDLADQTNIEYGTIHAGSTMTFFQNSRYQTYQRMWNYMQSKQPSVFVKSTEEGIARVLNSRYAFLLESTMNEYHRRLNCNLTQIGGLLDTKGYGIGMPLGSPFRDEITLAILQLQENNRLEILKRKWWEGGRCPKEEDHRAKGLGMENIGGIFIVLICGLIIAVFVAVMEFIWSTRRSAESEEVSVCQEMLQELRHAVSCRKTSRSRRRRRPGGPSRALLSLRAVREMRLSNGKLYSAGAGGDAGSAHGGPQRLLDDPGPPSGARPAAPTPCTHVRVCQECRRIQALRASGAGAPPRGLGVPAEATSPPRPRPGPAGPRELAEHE

[13] = target: T2, Glutamate receptor ionotropic AMPA (Homo sapiens, UniProt P42261+P42262+P42263+P48058); experiment: Binding affinity to AMPA receptor (unknown origin); format: protein-complex assay
[14] = target: T2, Glutamate receptor ionotropic AMPA; experiment: Displacement of [3H]CNQX from AMPA receptor (unknown origin); format: protein-complex assay
[15] = target: T2, Glutamate receptor ionotropic AMPA; experiment: Displacement of [3H]kainic acid from AMPA receptor (unknown origin); format: protein-complex assay
[16] = target: T2, Glutamate receptor ionotropic AMPA; experiment: Displacement of [3H]AMPA from AMPA receptor (unknown origin); format: protein-complex assay
[17] = Inhibition of KA-induced cytotoxicity in human hippocampal cell culture; format: toxicity, cell-based; conditions: Hippocampal neurone
[18] = target: Bromodomain-containing protein 4 (Homo sapiens, UniProt O60885); experiment: Inhibition of BRD4 (unknown origin) using histone-H4 as substrate incubated for 15 mins and measured after 1 hr by AlphaScreen assay
[19] = test system: Staphylococcus aureus; experiment: Antibacterial activity against Staphylococcus aureus assessed as diameter zone of inhibition; format: functional
[20] = test system: Pseudomonas aeruginosa; experiment: Antibacterial activity against Pseudomonas aeruginosa assessed as diameter zone of inhibition; format: functional
[21] = test system: Bacillus subtilis; experiment: Antibacterial activity against Bacillus subtilis assessed as diameter zone of inhibition; format: functional
[22] = test system: Escherichia coli; experiment: Antibacterial activity against Escherichia coli assessed as diameter zone of inhibition; format: functional
[23] = test system: Salmonella typhimurium; experiment: Antibacterial activity against Salmonella typhimurium assessed as diameter zone of inhibition; format: functional, Salmonella enterica subsp. enterica serovar Typhimurium
[24] = test system: Streptococcus pneumoniae; experiment: Antibacterial activity against Streptococcus pneumoniae assessed as diameter zone of inhibition; format: functional
[25] = target: Glutamate [NMDA] receptor; experiment: Displacement of [3H]MDL from NMDA receptor (unknown origin); format: protein-complex assay, Homo sapiens
[26] = Displacement of [3H]AMPA from NMDA receptor (unknown origin); format: protein-complex assay, Homo sapiens
[27] = target: Glutamate [NMDA] receptor; experiment: Antagonist activity at NMDA receptor (unknown origin) assessed as NMDA-induced depolarizations; format: protein-complex assay, Homo sapiens
[28] = target: Glutamate [NMDA] receptor; experiment: Displacement of [3H]MK-801 from NMDA receptor (unknown origin); format: protein-complex assay, Homo sapiens
[29] = Displacement of [3H]glycine from AMPA receptor (unknown origin); format: protein-complex assay, Homo sapiens
[30] = target: T2, Glutamate receptor ionotropic AMPA; experiment: Antagonist activity at AMPA receptor (unknown origin) assessed as AMPA-induced depolarizations; format: protein-complex assay
[31] = test system: WI-38; experiment: Antiproliferative activity against human WI-38 cells; format: functional, cell-based
[32] = target: Epidermal growth factor receptor (Homo sapiens, UniProt P00533, L858R); experiment: Inhibition of EGFR L858R mutant (unknown origin)
[33] = test system: HepG2; experiment: Antiproliferative activity against human HepG2 cells; format: functional, cell-based
[34] = target: Epidermal growth factor receptor (Homo sapiens, UniProt P00533); experiment: Inhibition of wild-type EGFR (unknown origin)
[35] = test system: HCT-116; experiment: Antiproliferative activity against human HCT-116 cells; format: functional, cell-based
[36] = test system: Staphylococcus aureus; experiment: Antibacterial activity against Staphylococcus aureus; format: functional
[37] = test system: Escherichia coli; experiment: Antibacterial activity against Escherichia coli W3110; format: functional
[38] = test system: Streptococcus pneumoniae; experiment: Antibacterial activity against Streptococcus pneumoniae; format: functional
[39] = Dissociation constant, pKa of the compound; format: physicochemical
[40] = test system: Pseudomonas aeruginosa; experiment: Antibacterial activity against Pseudomonas aeruginosa; format: functional
[41] = Lipophilicity, logD of compound; format: physicochemical; conditions: octanol/water
[42] = Inhibition of Escherichia coli topoisomerase 4
[43] = test system: Toxoplasma gondii; experiment: Anti-tachyzoite activity against Toxoplasma gondii at 100 uM; format: functional, type III
[44] = test system: Mus musculus; experiment: Antiinflammatory activity against mouse assessed as reduction in carragenan-induced paw edema at 25 mg/kg,po treated 1 hr prior to carrageenan challenge; format: functional; design: scale not given: the % may be the effect or the level left

Chain of Glutamate receptor 2 (P42262 whole entry): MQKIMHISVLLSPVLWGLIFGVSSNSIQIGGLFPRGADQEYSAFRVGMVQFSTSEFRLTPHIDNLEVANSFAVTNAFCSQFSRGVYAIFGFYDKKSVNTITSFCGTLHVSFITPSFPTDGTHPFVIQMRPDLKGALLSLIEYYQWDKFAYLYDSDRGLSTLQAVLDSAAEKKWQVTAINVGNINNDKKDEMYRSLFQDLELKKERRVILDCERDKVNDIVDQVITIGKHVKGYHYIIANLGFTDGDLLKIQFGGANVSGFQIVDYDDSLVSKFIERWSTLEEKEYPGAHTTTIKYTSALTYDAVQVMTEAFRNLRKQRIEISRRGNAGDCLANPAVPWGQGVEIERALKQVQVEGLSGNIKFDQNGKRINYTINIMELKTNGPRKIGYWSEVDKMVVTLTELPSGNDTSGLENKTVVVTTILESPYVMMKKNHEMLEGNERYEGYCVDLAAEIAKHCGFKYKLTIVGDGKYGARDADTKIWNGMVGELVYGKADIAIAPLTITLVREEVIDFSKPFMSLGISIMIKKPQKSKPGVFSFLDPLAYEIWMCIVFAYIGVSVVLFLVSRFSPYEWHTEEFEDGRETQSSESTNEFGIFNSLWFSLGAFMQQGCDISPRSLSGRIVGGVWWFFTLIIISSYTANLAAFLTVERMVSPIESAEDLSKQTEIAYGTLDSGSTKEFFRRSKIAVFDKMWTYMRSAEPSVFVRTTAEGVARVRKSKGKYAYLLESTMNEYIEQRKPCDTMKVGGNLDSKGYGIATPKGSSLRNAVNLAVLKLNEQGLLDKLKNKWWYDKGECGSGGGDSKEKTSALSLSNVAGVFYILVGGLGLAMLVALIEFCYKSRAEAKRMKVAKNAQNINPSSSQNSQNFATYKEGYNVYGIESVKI
Chain of Glutamate receptor ionotropic, kainate 2 (Q13002 whole entry): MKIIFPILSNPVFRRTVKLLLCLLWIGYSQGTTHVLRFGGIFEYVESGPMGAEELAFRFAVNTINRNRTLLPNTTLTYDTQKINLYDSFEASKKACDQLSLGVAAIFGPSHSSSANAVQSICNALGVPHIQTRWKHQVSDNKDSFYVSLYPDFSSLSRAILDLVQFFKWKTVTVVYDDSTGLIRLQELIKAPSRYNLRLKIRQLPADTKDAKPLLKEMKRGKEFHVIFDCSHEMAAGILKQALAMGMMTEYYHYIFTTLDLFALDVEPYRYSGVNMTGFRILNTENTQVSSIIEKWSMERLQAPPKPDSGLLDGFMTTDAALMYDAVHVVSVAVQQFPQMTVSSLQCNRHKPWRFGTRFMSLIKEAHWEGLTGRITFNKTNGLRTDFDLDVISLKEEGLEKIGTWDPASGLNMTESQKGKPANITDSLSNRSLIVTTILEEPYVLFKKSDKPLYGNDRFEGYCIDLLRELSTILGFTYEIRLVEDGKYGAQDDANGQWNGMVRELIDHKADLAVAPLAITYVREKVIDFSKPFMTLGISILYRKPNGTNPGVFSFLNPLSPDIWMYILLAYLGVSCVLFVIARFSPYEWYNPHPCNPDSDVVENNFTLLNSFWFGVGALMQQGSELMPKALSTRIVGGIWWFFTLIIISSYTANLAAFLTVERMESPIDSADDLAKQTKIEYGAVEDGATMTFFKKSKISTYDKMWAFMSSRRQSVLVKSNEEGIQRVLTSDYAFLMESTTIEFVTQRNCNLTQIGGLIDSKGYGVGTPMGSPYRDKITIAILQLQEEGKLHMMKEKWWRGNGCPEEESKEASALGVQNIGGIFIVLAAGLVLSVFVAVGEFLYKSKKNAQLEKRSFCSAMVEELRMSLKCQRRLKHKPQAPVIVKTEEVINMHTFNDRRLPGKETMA
Chain of Vascular endothelial growth factor receptor 2 (P35968 whole entry): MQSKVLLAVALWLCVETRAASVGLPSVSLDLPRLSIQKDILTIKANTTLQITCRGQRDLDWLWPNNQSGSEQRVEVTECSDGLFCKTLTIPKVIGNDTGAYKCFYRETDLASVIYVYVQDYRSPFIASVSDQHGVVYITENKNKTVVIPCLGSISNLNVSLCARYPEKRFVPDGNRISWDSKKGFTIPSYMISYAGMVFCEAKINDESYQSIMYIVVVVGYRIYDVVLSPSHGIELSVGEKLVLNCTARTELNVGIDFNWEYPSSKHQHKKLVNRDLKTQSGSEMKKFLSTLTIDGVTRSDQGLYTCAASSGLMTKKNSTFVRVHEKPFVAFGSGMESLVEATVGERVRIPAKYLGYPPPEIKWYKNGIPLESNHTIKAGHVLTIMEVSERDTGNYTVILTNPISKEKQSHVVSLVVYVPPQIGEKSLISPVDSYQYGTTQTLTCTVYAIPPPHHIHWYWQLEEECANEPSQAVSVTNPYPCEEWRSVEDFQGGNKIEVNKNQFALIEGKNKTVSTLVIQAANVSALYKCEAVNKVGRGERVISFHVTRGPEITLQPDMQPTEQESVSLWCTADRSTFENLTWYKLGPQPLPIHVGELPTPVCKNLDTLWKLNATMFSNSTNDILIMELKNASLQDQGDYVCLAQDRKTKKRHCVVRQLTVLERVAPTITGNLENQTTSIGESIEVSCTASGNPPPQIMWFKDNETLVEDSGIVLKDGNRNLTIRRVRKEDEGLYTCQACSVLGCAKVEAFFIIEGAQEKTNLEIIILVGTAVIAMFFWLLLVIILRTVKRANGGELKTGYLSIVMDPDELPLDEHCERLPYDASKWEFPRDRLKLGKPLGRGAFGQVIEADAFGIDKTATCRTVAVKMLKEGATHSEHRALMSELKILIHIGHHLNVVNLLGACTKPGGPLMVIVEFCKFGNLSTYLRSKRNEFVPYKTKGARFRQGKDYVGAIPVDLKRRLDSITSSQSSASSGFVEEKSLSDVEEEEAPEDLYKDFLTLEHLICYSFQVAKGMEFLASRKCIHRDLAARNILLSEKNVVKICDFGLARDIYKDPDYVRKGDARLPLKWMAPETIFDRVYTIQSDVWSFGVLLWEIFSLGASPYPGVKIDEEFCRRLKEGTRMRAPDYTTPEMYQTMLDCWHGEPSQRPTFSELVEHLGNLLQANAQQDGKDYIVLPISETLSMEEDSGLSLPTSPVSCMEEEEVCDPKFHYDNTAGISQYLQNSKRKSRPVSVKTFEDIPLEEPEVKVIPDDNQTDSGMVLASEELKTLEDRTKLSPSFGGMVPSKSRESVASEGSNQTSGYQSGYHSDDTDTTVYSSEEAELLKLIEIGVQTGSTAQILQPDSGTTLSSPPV
Chain of Epidermal growth factor receptor (Homo sapiens, UniProt P00533) (P00533 whole entry): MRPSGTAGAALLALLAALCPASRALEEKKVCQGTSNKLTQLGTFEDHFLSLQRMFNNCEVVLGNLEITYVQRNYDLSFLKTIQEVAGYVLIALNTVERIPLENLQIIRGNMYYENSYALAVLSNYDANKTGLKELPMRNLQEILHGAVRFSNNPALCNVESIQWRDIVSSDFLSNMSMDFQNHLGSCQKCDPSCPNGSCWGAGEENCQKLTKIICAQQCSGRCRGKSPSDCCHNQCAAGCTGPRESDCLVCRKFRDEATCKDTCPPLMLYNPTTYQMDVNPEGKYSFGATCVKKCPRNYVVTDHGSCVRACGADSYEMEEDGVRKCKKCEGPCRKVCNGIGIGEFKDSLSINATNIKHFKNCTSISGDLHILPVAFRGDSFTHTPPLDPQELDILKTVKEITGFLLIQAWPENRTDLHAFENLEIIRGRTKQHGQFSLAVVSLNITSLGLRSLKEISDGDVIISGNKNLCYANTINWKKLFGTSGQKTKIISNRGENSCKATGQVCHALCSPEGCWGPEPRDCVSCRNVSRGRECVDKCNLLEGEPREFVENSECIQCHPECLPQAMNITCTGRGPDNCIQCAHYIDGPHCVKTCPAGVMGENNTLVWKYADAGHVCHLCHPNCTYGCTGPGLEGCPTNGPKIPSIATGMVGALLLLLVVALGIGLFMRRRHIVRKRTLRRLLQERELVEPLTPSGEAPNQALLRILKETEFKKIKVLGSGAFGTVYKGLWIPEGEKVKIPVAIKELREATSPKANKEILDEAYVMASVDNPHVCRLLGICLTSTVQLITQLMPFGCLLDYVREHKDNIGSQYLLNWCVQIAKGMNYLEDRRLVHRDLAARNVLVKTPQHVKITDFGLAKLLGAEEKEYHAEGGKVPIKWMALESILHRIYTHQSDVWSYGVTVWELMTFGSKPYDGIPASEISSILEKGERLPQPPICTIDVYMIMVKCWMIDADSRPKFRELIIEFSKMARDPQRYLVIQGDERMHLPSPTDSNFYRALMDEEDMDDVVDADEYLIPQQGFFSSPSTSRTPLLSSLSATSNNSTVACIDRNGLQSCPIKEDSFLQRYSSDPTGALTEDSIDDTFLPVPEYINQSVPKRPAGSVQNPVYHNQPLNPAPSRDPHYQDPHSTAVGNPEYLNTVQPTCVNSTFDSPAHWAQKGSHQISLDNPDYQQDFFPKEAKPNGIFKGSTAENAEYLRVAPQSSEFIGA

IC50 [1]: 0.55 µM
SMILES: Cn1c(=O)c(Cc2ccc(C(=N)N)cc2)nc2cc(C3(N(C(=O)CC(=O)O)C4CCCC4)CC3)ccc21

IC50 [2]: > 100 µM | IC50 [4]: 47.6 µM | inhibition [5]: 56% | IC50 [7]: > 100 µM | IC50 [8]: > 100 µM
SMILES: O=C(Cn1c(=O)c(/C=C/c2ccncc2)nc2ccccc21)Nc1ccc(Cl)c(Cl)c1
IC50 [3]: > 100 µM | IC50 [6]: > 100 µM

IC50 [2]: > 100 µM | IC50 [4]: 49 µM | inhibition [5]: 6% | IC50 [7]: 59.9 µM | IC50 [8]: > 100 µM
SMILES: O=C(Cn1c(=O)c(/C=C/c2ccncc2)nc2ccccc21)Nc1ccc(F)cc1
IC50 [3]: > 100 µM | IC50 [6]: > 100 µM

Ki [9]: 4.12 µM | Ki [10]: 0.908 µM | Ki [11]: 1.12 µM | Ki [12]: 26.4 µM | Ki [13]: 0.96 µM
SMILES: O=C(Nn1c(=O)c(=O)[nH]c2cc(C(F)(F)F)c(F)cc21)c1ccccc1O

IC50 [14]: 4 µM | IC50 [15]: 54 µM | IC50 [16]: 11 µM
SMILES: Cc1cc2[nH]c(=O)c(=O)[nH]c2cc1C=O

Ki [16]: 0.02 µM
SMILES: CCc1cnc2c(=O)[nH]c3cc([N+](=O)[O-])c(-n4ccnc4)nc3n12
IC50 [17]: 0.3 µM

IC50 [18]: 0.032 µM
SMILES: Cc1noc(C)c1-c1ccc2c(c1)C(Cc1ccccc1)NC(=O)N2C (stereo not given)

SMILES: Cc1ccccc1NCC(=O)N1CC(=O)Nc2ccccc21
diameter of the inhibition zone (DIZ) [19]: 15 mm | diameter of the inhibition zone (DIZ) [20]: 12 mm | diameter of the inhibition zone (DIZ) [21]: 15 mm | diameter of the inhibition zone (DIZ) [22]: 15 mm | diameter of the inhibition zone (DIZ) [23]: 9 mm | diameter of the inhibition zone (DIZ) [24]: 10 mm

IC50 [25]: 0.01 µM | IC50 [26]: 1.6 µM
SMILES: O=C(NCc1cc(Br)cc2nc(O)c(O)nc12)c1cccs1

IC50 [27]: 23 µM | IC50 [28]: 43 µM | IC50 [15]: 8.9 µM | Ki [16]: 0.53 µM | Ki [29]: 28 µM | IC50 [30]: 1.2 µM
SMILES: O=Cc1ccn(-c2cc3c(cc2Cl)nc(O)c2nc(C(=O)O)nn23)c1

IC50 [14]: 1.4 µM | IC50 [15]: 2.2 µM | IC50 [16]: 0.93 µM
SMILES: O=c1[nH]c2cc([N+](=O)[O-])c([N+](=O)[O-])cc2[nH]c1=O [DNQX]

IC50 [25]: 0.01 µM | IC50 [26]: 11.3 µM
SMILES: O=C(Cc1ccsc1)NCc1cc(Br)cc2nc(O)c(O)nc12

IC50 [32]: 0.0754 µM | IC50 [4]: 17.9 µM | IC50 [33]: 15.6 µM | IC50 [34]: 0.957 µM | IC50 [35]: 13.8 µM
SMILES: COC(=O)CCc1nc2ccc(Br)cc2[nH]c1=O
IC50 [31]: 142 µM

Ki [9]: 37.4 µM | Ki [10]: 9.78 µM | Ki [12]: 100 µM
SMILES: O=C(Nn1c(=O)c(=O)[nH]c2cc(C#CCO)ccc21)c1ccccc1

MIC [36]: 0.03 µg/mL (≈ 0.0646 µM) | MIC [37]: 0.13 µg/mL (≈ 0.28 µM) | MIC [38]: 0.08 µg/mL (≈ 0.172 µM) | pKa [39]: 5.56 | MIC [40]: 1 µg/mL (≈ 2.15 µM) | logD [41]: 0.6 | IC50 [42]: 0.0022 µM
SMILES: COc1ccc2ncc(=O)n(CCN3CCC(NCc4ccc5c(n4)NC(=O)CO5)CC3)c2c1

SMILES: O=C1CN(CCCCCN2CCCCC2)c2ccc([N+](=O)[O-])cc2N1
Activity [43]: 92%

SMILES: CC(C)Cc1ccc(C(C)C(=O)O)cc1 (stereo not given) [IBUPROFEN]
Activity [44]: 39.3%

SMILES: O=C1CN(C(=O)CCl)c2ccccc2N1
diameter of the inhibition zone (DIZ) [20]: 15 mm | diameter of the inhibition zone (DIZ) [24]: 16 mm
